Results: patent US10077463B2, “Optical selection of cells” (President and Fellows of Harvard College, priority 2015, dated 2018)

What was measured:
[1] = system: MDCK cells; format: cell-based; conditions: 4 μM, 407 nm light 825 J/cm^2
[2] = system: MDCK cells; experiment: Photostick of MDCK cells (violet light crosslinking, ACCUTASE development); format: cell-based, Canine
[3] = system: MDCK cells; experiment: Cell entry by high magnification fluorescence imaging; format: cell-based, Canine; conditions: 4 μM, fluorescence localized to the cell membrane
[4] = system: rat hippocampal neurons; experiment: Photostick of a single neuron chosen by Optopatch firing pattern; format: cell-based; conditions: 15 μM, 407 nm light 2200 J/cm^2, ACCUTASE 6 min 37° C.

In the case of `CC[N+]1=C(/C=C/C=C2/N(CCCCCC(=O)NCCNC(=O)CCSSCCNC(=O)C(CCCCNC(=O)CCCCC3SCC4NC(=O)NC43)NC(=O)c3ccc(N=[N+]=N)cc3)c3ccc(S(=O)(=O)O)cc3C2(C)C)C(C)(C)c2cc(S(=O)(=O)O)ccc21` (stereo not drawn) [Cy3-SBED], the “Cell doubling time post-photostick” value [1] is reported as 34 h, the “Cells in the dark region removed” value [2] is reported as 99.96% and the “Cells within the illuminated region retained (photostuck cells remained)” value [2] is reported as 98.7%. The Non-photostuck cells remained [2] was 0.04%, the “Entry into cells (intracellular fluorescence)” value [3] was “did not enter the cells” and the “Retention of selected neuron after ACCUTASE (in words)” value [4] was “the selected neuron remained”.
